Data on 45 molecules can be found in US20250154145A1, “OXER1 ANTAGONISTS AND USES THEREOF” (Fairhaven Pharmaceuticals Ins., priority 2021, published 2025).

In one experiment the test system is neutrophils. Description: Neutrophil calcium flux assay (5-OXO-ETE-stimulated, Indo-1 fluorescence). The format is cell-based. Particulars: Neutrophil, 5-OXO-ETE-stimulated calcium flux. A digest of the protocol:
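Indo-1-loaded neutrophils (5×10^6 cells/ml, 30 min at 37 °C) in HBSS with Ca/Mg and HEPES, pre-incubated 5 min with antagonist or buffer. Stimulated with 5-OXO-ETE added at 200 nM (4× stock); fluorescence (ex 331/em 410 nm) read every 5 s for 30 cycles, expressed as net fluorescence.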
(In general: A change in cytosolic calcium serves as a functional read-out for many receptors and channels.)

The next experiment has as its target T1, Human OXER1 (Homo sapiens, UniProt Q8TDS5).
T1 construct: host or cells: HEK293 cells, transient transfection
Description: BRET early endosome trafficking assay (OXER1-Rluc8 / rGFP-FYVE in HEK293 cells). Particulars: HEK293 cells transfected with OXER1-Rluc8 and rGFP-FYVE, 5-oxo-ETE agonist. The format is cell-based. An excerpt:
Background—The following assay can be used for determination of OXER1 activation in living HEK293 cells. Signalling functions of GPCRs are tightly regulated by endocytosis, the targeting of receptors to endosomes and their sorting to lysosomes or recycling to the plasma membrane. The early endosomes (EEs) trafficking assay (Namkung et al., Monitoring G protein-coupled receptor and β-arrestin trafficking in live cells using enhanced bystander BRET, Nat Commun 2016, 7: 12178) uses Rluc8-tagged OXER1 and Renilla GFP (rGFP) attached to the FYVE domain from human endofin/zinc finger FYVE domain-containing protein 16, which binds phosphatidylinositol 3-phosphate in EEs. Agonist stimulation of OXER1-Rluc8 leads to trafficking of the receptor to EEs, and ensuing increase of the donor concentration relative to the rGFP-FYVE acceptor anchored in the same cellular compartment, and thus results in an increase in BRET signal.
Plasmids—Human OXER1 VersaClone cDNA was obtained from R&D Systems. Rluc8 (A55T, C124A, S130A, K136R, A143M, M185V, M253L, and S287L variant of theRenilla renformis luciferase) gBlocks gene fragment (Integrated DNA Technologies, IA) was inserted with linker in frame at the C-terminus of OXER1. The FYVE domain from human endofin (residues Q739 to K806) attached in frame at the C terminus of a humanized Renilla GFP (rGFP), were synthesized as gBlocks gene fragments.
Bioluminescence Resonance Energy Transfer (BRET) Measurement—HEK293 cells were transfected with OXER1-Rluc8 and rGFP-FYVE. The following day, transiently transfected cells were seeded in 96-well white clear bottom microplates coated with poly-D-lysine and left in culture for 24 hours. Cells were washed once with Tyrode's buffer (140 mmol/L NaCl, 1 mmol/L CaCl2, 2.7 mmol/L KCl, 0.49 mmol/L MgCl2, 0.37 mmol/L NaH2PO4, 5.6 mmol/L glucose, 12 mmol/L NaHCO3, and 25 mmol/L HEPES, pH 7.5) before performing assays in Tyrode's buffer. Test compounds were incubated with cells for 15 minutes at 37° C. before addition of […] of the OXER1 agonist 5-oxo-6E,8Z,1IZ,14Z-eicosatetraenoic acid (5-oxo-ETE) for 45 minutes at 37° C. The Rluc8 substrate coelenterazine 400A (Prolume, Lakeside, AZ) was added at a final concentration of […] and BRET readings were collected using a Spark or Infinite M1000 microplate reader (Tecan, Morrisville, NC). BRET^2 readings between Rluc8 and rGFP were collected by sequential integration of the signals detected in the 370 to 450 nm (Rluc8) and 510 to 540 nm (rGFP) windows. The BRET signal was calculated as the ratio of light emitted by acceptor (rGFP) over the light emitted by donor (Rluc8). Ligand-promoted net BRET values were calculated by subtracting vehicle-induced net BRET from ligand-induced net BRET.

T1 sequence (Q8TDS5 whole entry): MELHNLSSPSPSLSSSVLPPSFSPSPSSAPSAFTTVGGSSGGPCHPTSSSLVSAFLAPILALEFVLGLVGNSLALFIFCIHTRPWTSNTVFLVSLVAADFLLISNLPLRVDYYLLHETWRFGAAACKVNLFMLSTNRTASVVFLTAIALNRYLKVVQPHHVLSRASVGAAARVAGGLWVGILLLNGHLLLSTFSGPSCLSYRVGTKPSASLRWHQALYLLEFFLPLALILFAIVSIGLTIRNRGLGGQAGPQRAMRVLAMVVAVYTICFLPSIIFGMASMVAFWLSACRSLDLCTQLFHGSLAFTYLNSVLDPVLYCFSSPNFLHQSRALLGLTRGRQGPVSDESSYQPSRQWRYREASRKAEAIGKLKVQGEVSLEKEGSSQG

As to `C[C@H](CC(=O)O)CC(=O)c1c(CCCCCC(O)c2cccc(Cl)c2)n(C)c2ccc(Cl)cc12` (stereo partly shown) [Compound I-44], the IC50 with neutrophils and at Human OXER1 was < 100 nM throughout. Turning to `C[C@H](CC(=O)O)CC(=O)c1c(CCCCOCc2cccc(Cl)c2)n(C)c2ncc(Cl)cc12` [Compound I-83], the values for the half-inhibitory concentration (IC50) in the experiment on neutrophils and on Human OXER1 were < 100 nM and 100 to 300 nM, respectively. With `CONC(=O)C[C@H](C)CC(=O)c1c(CCCCCCc2cccc(Cl)c2)n(C)c2ccc(Cl)cc12` [Compound I-20], the half-inhibitory concentration (IC50) in the experiment with neutrophils is 100 to 300 nM; on Human OXER1 it was > 300 nM.

`[2H]C([2H])([2H])n1c(CCCCCCc2cccc(Cl)c2)c(C(=O)C[C@H](C)CC(=O)O)c2cc(Cl)ccc21` [Compound I-40]: the IC50 in the experiment with neutrophils and at Human OXER1 was < 100 nM each time. As for `C[C@H](CC(=O)O)CC(=O)c1c([C@H](O)CCCCCc2cccc(Cl)c2)n(C)c2ccc(Cl)cc12` [Compound I-5], the IC50 with neutrophils and at Human OXER1 was > 300 nM each time. As for `C[C@@H](CC(=O)O)CC(=O)c1c([C@H](O)CCCCCc2cccc(Cl)c2)n(C)c2ccc(Cl)cc12` [Compound I-6], the IC50 in the experiment with neutrophils and on Human OXER1 was > 300 nM each time. With `CC(CC(=O)O)CC(=O)c1c(CCCCOCc2cccc(Cl)c2)n(C)c2ccc(C(F)(F)F)cc12` (stereo not shown) [Compound I-185], the half-maximal inhibitory concentration (IC50) in the experiment with neutrophils was < 100 nM; at Human OXER1 it was 100 to 300 nM.

For the molecule `C[C@H](CC(=O)NS(C)(=O)=O)CC(=O)c1c(CCCCCCc2cccc(Cl)c2)n(C)c2ccc(Cl)cc12` [Compound I-14], the half-maximal inhibitory concentration (IC50) with neutrophils and at Human OXER1 was 100 to 300 nM throughout. For the molecule `C[C@H](CC(=O)O)CC(=O)c1c(CCCCCCc2ccccc2)n(C)c2ccc(Cl)cc12` [Compound I-7], the IC50 with neutrophils and at Human OXER1 was < 100 nM each time. For `C[C@@H](CC(=O)O)CC(=O)c1c(CCCCCCc2cccc(Cl)c2)n(C)c2ccc(Cl)cc12` [Compound I-1], the results for the IC50 in the experiment on neutrophils and on Human OXER1 were > 300 nM and 100 to 300 nM, respectively. As to `C[C@@H](CC(=O)O)CC(=O)c1c(CCCCCCc2ccccc2)n(C)c2ccc(Cl)cc12` [Compound I-8], the 50% inhibitory concentration (IC50) in the experiment on neutrophils and at Human OXER1 was > 300 nM throughout. Take `C[C@H](CC(=O)O)CC(=O)c1c(CCCCCCc2cccc(Cl)c2)n(C)c2ccc(C#N)cc12` [Compound I-98]: the half-maximal inhibitory concentration (IC50) with neutrophils and at Human OXER1 was < 100 nM in each case.

Regarding `C[C@H](CC(=O)O)CC(=O)c1c(CCCCCCc2cccc(Cl)c2)sc2ccc(Cl)cc12` [Compound I-23], the IC50 in the experiment on neutrophils is 100 to 300 nM; on Human OXER1 it was < 100 nM. On to `C[C@@H](CC(=O)O)CC(=O)c1c([C@@H](O)CCCCCc2cccc(Cl)c2)n(C)c2ccc(Cl)cc12` [Compound I-4], for which the IC50 with neutrophils and at Human OXER1 was > 300 nM throughout. As to `C[C@H](CC(=O)O)CC(=O)c1c(CCCCOCc2cccc(Cl)c2)n(C)c2ncc(C(F)(F)F)cc12` [Compound I-182], the concentration for half-maximal inhibition (IC50) in the experiment on neutrophils was < 100 nM; at Human OXER1, 100 to 300 nM. On the same counts, the results for `C[C@@H](CC(=O)O)CC(=O)c1c(CCCCCCc2cccc(Cl)c2)oc2ccc(Cl)cc12` [Compound I-22] are > 300 nM and 100 to 300 nM. Consider `C[C@H](CC(=O)O)CC(=O)c1c(CCCCCC(F)c2cccc(Cl)c2)n(C)c2ccc(Cl)cc12` (stereo partly shown) [Compound I-47], for which the IC50 in the experiment with neutrophils and at Human OXER1 was < 100 nM each time.

For the molecule `C[C@H](CC(=O)O)CC(=O)c1c(CCCCCCc2ccc(O)c(Cl)c2)n(C)c2ccc(Cl)cc12` [Compound I-48], the 50% inhibitory concentration (IC50) in the experiment on neutrophils and on Human OXER1 was < 100 nM in each case. Turning to `CC(C)C#CCCCCCCc1c(C(=O)C[C@H](C)CC(=O)O)c2cc(Cl)ccc2n1C` [Compound I-68], the IC50 with neutrophils and at Human OXER1 was < 100 nM each time. As for `C[C@H](CC(=O)O)CC(=O)c1c(CCCCCOc2cccc(Cl)c2)n(C)c2ccc(Cl)cc12` [Compound I-59], the results for the IC50 in the experiment on neutrophils and on Human OXER1 were < 100 nM and 100 to 300 nM, respectively.

Regarding `C[C@H](CC(=O)O)CC(=O)c1c(CCCCCCc2cccc(F)c2)n(C)c2ccc(Cl)cc12` [Compound I-9], the half-inhibitory concentration (IC50) with neutrophils and at Human OXER1 was < 100 nM throughout. As to `C[C@H](CC(=O)O)CC(=O)c1c(CCCCOCc2cccc(Cl)c2)n(C)c2ccc(C#N)cc12` [Compound I-180], the IC50 in the experiment with neutrophils and on Human OXER1 was < 100 nM in each case. Consider `Cn1c(CCCCCCC#CC2CC(F)(F)C2)c(C(=O)N2CC[C@H](C(=O)O)C2)c2cc(C#N)cnc21` [Compound I-340], for which the half-maximal inhibitory concentration (IC50) with neutrophils is < 100 nM. As for `Cn1c(CCCCCCC#CC2CC(F)(F)C2)c(C(=O)N2CC[C@H](c3nnn[nH]3)C2)c2cc(C#N)cnc21` [Compound I-354], the IC50 in the experiment on neutrophils was < 100 nM. On the same count and under the same terms, the same measure for `Cc1ccccc1COCCCCc1c(C(=O)CC(C)CC(=O)O)c2cc(C#N)cnc2n1C` (stereo not shown) [Compound I-450]: > 300 nM; for `C[C@H](OCCCCc1c(C(=O)N2CC[C@H](C(=O)O)[C@H]2C)c2cc(C#N)cnc2n1C)c1ccccc1` [Compound I-454]: > 300 nM; for `Cn1c(CCCCCCCC#CC2CC(F)(F)C2)c(C(=O)N2CC[C@H](C(=O)O)C2)c2cc(Br)cnc21` [Compound I-350]: > 300 nM. In the case of `C[C@H](CC(=O)O)CC(=O)c1c(CCCCOCc2cccc(C#N)c2)n(C)c2ncc(Cl)cc12` [Compound I-212], the half-inhibitory concentration (IC50) in the experiment on neutrophils is < 100 nM. `Cn1c(CCCCCCC#CC2CC(F)(F)C2)c(C(=O)N2CC[C@@H](C(=O)O)C2)c2cc(C#N)cnc21` [Compound I-341]: the concentration for half-maximal inhibition (IC50) with neutrophils was > 300 nM.

For the molecule `CC(C)C#CCCCCCc1c(C(=O)C[C@H](C)CC(=O)O)c2cc(Cl)ccc2n1C` [Compound I-114], the IC50 in the experiment with neutrophils is > 300 nM.

As to `CC(CC(=O)O)CC(=O)c1c(CCCCOCc2cccc(C(=O)N(C)C)c2)n(C)c2ncc(C#N)cc12` (stereo not shown) [Compound I-370], the IC50 in the experiment with neutrophils is < 100 nM.

`CC(CC(=O)O)CC(=O)c1c(CCCCCCC#CC2COC2)n(C)c2ccc(Cl)cc12` (stereo not shown) [Compound I-321]: in the experiment with neutrophils, the half-maximal inhibitory concentration (IC50) was < 100 nM. Still for that read-out and setting: the same measure for `CC(CC(=O)O)CC(=O)c1c(CCCCOCc2ccc(F)cc2)n(C)c2ncc(C#N)cc12` (stereo not shown) [Compound I-297]: < 100 nM; for `CC(CC(=O)O)CC(=O)c1c(CCCCOCc2ccc(Cl)cc2)n(C)c2ncc(C#N)cc12` (stereo not shown) [Compound I-290]: 100 to 300 nM; for `C[C@H](CC(=O)O)CC(=O)c1c(CCCCCNc2ncccn2)n(C)c2ccc(Cl)cc12` [Compound I-82]: 100 to 300 nM. Turning to `CC(CC(=O)O)CC(=O)c1c(CCCCO)n(C)c2ncc(C#N)cc12` (stereo not shown) [Compound I-429], the IC50 in the experiment with neutrophils is > 300 nM. As to `C[C@@H](CC(=O)c1c(CCCCOCc2ccccc2)n(C)c2ncc(C#N)cc12)Cc1nnn[nH]1` [Compound I-359], in the experiment with neutrophils, the IC50 is < 100 nM. In the case of `C[C@@H](CC(=O)O)CC(=O)c1c(CCCCOCc2cccc(C#N)c2)n(C)c2cnccc12` [Compound I-395], in the experiment on neutrophils, the 50% inhibitory concentration (IC50) is > 300 nM. On to `C[C@H](CC(=O)O)CC(=O)c1c(CCCCCCC#CC2CCC2)n(C)c2ccc(Cl)cc12` [Compound I-113], for which the 50% inhibitory concentration (IC50) in the experiment on neutrophils was > 300 nM. Turning to `C[C@H](CC(=O)O)CC(=O)c1c(CCCCOCc2cccc(Cl)c2)n(C)c2cnc(Cl)cc12` [Compound I-410], the 50% inhibitory concentration (IC50) with neutrophils is < 100 nM. `C[C@H](CC(=O)O)CC(=O)c1c(CCCCOCc2cccc(C#N)c2)n(C)c2cc(F)ccc12` [Compound I-413]: the 50% inhibitory concentration (IC50) with neutrophils is < 100 nM. Regarding `CC(CC(=O)O)CC(=O)c1c(CCCCCCc2cccc(C#N)c2)n(C)c2ncc(Cl)cc12` (stereo not shown) [Compound I-285], the half-maximal inhibitory concentration (IC50) with neutrophils was < 100 nM. Still for that read-out and setting: the same measure for `C[C@H](CC(=O)O)CC(=O)c1c(CCCCCCc2ccncc2)n(C)c2ccc(Cl)cc12` [Compound I-55]: < 100 nM; for `Cn1c(CCCCCNc2cccc(Cl)c2)c(C(=O)N2CC[C@H](C(=O)O)C2)c2cc(Cl)cnc21` [Compound I-148]: > 300 nM.

Turning to `COc1cccc(CCCCC#Cc2c(C(=O)CC(C)CC(=O)O)c3cc(C#N)cnc3n2C)c1` (stereo not shown) [Compound I-419], the IC50 with neutrophils is > 300 nM.

Usually IC50 stands for the concentration that inhibits the measured activity by half.
